# Results from PubChem BioAssay (NCI).
# “And” between values parts separate entries of the source, which are not always exact repeats. Identical values can stand only once.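 All cell lines were grown in 96-well plates and treated with compound for 48 hours. Here, GI50 denotes the concentration required for 50% inhibition of growth. At the TGI there is no net growth.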
# Columns and labels:
# Assay in all cases: DTP human tumour cell line panel, 48 h
# DLD-1 colon = test system: DLD-1 colon
# IGROV1 ovarian = test system: IGROV1 ovarian
# LXFL 529 NSCLC = test system: LXFL 529 NSCLC
# NCI-H23 lung = test system: NCI-H23 lung
# NCI-H460 lung = test system: NCI-H460 lung
# SK-OV-3 ovarian = test system: SK-OV-3 ovarian
# SNB-19 CNS = test system: SNB-19 CNS
# UACC-62 melanoma = test system: UACC-62 melanoma
# HS 578T breast = test system: HS 578T breast
# T-47D breast = test system: T-47D breast
Compound,TGI (DLD-1 colon) [µM],TGI (IGROV1 ovarian) [µM],TGI (LXFL 529 NSCLC) [µM],TGI (NCI-H23 lung),TGI (NCI-H460 lung) [µM],TGI (SK-OV-3 ovarian) [µM],TGI (SNB-19 CNS) [µM],TGI (UACC-62 melanoma),GI50 (DLD-1 colon) [µM],GI50 (IGROV1 ovarian),GI50 (LXFL 529 NSCLC) [µM],GI50 (NCI-H23 lung),GI50 (NCI-H460 lung),GI50 (SK-OV-3 ovarian),GI50 (SNB-19 CNS),GI50 (UACC-62 melanoma),GI50 (HS 578T breast),TGI (HS 578T breast),GI50 (T-47D breast) [µg/mL],TGI (T-47D breast) [µM]
CCCCN(CCCC)C(=O)C(=O)CC(=O)/C=C/c1ccccc1,> 100,> 100,> 100,> 100 µM,> 100,> 100,> 100,> 100 µM,,,,,,,,,,,,
C/C=C/C(=O)[O-].N.N.N.N.N.[Co+3].[O-][Cl+3]([O-])([O-])[O-],> 100,> 100,> 100,> 100 µM,> 100,> 100,> 100,> 100 µM,> 100,> 100 µM,> 100,> 100 µM,> 100 µM,> 100 µM,> 100 µM,> 100 µM,,,,
COC(=O)C12C3C4C1C1C2C3C41C(=O)N(C(C)C)C(C)C (stereo not given),> 100,> 100,> 100,> 100 µM,> 100,> 100,> 100,> 100 µM,,,,,,,,,,,,
O=C(O)Cc1cc(=O)[nH]c2c1C(=O)CCC2,> 100,> 100,> 100,> 100 µM,> 100,> 100,> 100,,,,,,,,,,,,,
CN/N=C(\C(=O)Nc1ccc([N+](=O)[O-])cc1[N+](=O)[O-])C1NC(=O)NC1=O (stereo not given),> 100,> 100,> 100,> 100 µM,> 100,> 100,> 100,> 100 µM,,,,,,,,,,,,
Cc1ccc(SCC(O)=C2C(=O)CCCC2=O)cc1,> 100,> 100,> 100,> 100 µM,> 100,> 100,> 100,> 100 µM,,,,,,,,,,,,
O=C(O)c1oc2cccc3c2c1CCC3,> 100,> 100,> 100,> 100 µM,> 100,> 100,> 100,> 100 µM,,,,,,,,,,,,
Cc1c(N)nc(C(CC(N)=O)NCC(N)C(N)=O)nc1C(=O)NC(C(=O)NC(C)C(O)C(C)C(=O)NC(C(=O)NCCc1nc(-c2nc(C(=O)NCCCNCCCCN)cs2)cs1)C(C)O)C(OC1OC(CO)C(O)C(O)C1OC1OC(CO)C(O)C(OC(N)=O)C1O)c1cnc[nH]1 (stereo not given),> 10,> 10,> 10,11.1 µg/mL and > 10 µM,> 10,> 10,> 10,25.6 µg/mL and > 10 µM,,9.17 µg/mL and 6.68 µg/mL,,0.251 µg/mL,0.199 µg/mL and 0.171 µg/mL,8.67 µg/mL,8.2 µg/mL and 29.7 µg/mL,0.605 µg/mL and 0.744 µg/mL,5.69 µg/mL and 0.24 µg/mL,38.4 µg/mL,16.5,
c1ccc(COc2cccc3cccnc23)cc1,> 100,> 100,> 100,> 100 µM,> 100,> 100,> 100,> 100 µM,,,,,,,,,,,,
COC(=O)/C(=N/O)C(C(=O)OC)C(=O)C(=O)Nc1c(Cl)cc(C)cc1S(=O)(=O)O (stereo not given),> 100,> 100,> 100,> 100 µM,> 100,> 100,> 100,> 100 µM,,,,,,,,,,,,
COc1cc(C2(C)SCCCS2)c(I)c(OC)c1OC,> 100,> 100,> 100,> 100 µM,> 100,> 100,> 100,> 100 µM,,,,,,,,,,,,
O=C1OC(c2ccccc2)=N/C1=C/N1CCCC1C(=O)O (stereo not given),> 100,> 100,> 100,> 100 µM,> 100,> 100,> 100,> 100 µM,,,,,,,,,,,,
COc1cccc2ccc3c(c12)C(=O)OC31CCc2c(C)cccc21 (stereo not given),> 31.6,> 46.4,> 31.6,> 46.4 µM,> 31.6,> 46.4,> 46.4,> 46.4 µM,,,,,,,,,,> 100 µM,,> 100
O=C1C2=C(c3ccccc31)C(c1ccc(F)cc1)N1C(=O)CCSC1=N2 (stereo not given),> 100,> 100,> 100,> 100 µM,> 100,> 100,> 100,> 100 µM,,,,,,,,,,,,
O=C(Nc1ccccc1C(=O)O)C(=O)C(C(=O)c1ccccc1-c1ccccc1)C1OC(=O)c2ccccc21 (stereo not given),47,56.3,28,40.5 µM,32.7,94,35.2,35.7 µM,,,,,,,,,,,,
COc1cc2c3c(c1OC)Oc1ccc(cc1)CC1c4c(cc(OC)c(OC)c4Oc4ccc(cc4)CC3N(C)CC2)CCN1C (stereo not given),> 100,67.8,39.6,> 100 µM,37.1,84.1,> 100,34.9 µM,,,,,,,,,,,,
N[C@H](C(=O)O)[C@@H](Cl)CC(=O)O,> 100,> 100,> 100,> 100 µM,> 100,> 100,> 100,> 100 µM,,,,,,,,,,,,
CNC(C)Cc1ccc(O)cc1 (stereo not given),> 100,> 100,> 100,> 100 µM,> 100,> 100,> 100,> 100 µM,,,,,,,,,,,,
Cc1ccc(C)c2c1CCc1cc3ccccc3nc1-2,> 100,> 100,> 100,> 100 µM,> 100,> 100,> 100,> 100 µM,,,,,,,,,,,,
